Patent US6057371A, “Sigma receptor ligands and the use thereof” (Virginia Commonwealth University, priority 1992, dated 2000)
Where a name gives a salt, the structure may show the parent alone. Read-outs that look alike come from different tables or passages of the source.

Assays:
[1] = molecular target: T1, 5-HT1A receptor (Rattus norvegicus, UniProt P19327); test: biochemical; format: binding; design: 47: 529-540 (1986); from tissue; host or cells: brain tissue, inferred from the cited method (rat frontal cortex)
T1 sequence (P19327 1-422): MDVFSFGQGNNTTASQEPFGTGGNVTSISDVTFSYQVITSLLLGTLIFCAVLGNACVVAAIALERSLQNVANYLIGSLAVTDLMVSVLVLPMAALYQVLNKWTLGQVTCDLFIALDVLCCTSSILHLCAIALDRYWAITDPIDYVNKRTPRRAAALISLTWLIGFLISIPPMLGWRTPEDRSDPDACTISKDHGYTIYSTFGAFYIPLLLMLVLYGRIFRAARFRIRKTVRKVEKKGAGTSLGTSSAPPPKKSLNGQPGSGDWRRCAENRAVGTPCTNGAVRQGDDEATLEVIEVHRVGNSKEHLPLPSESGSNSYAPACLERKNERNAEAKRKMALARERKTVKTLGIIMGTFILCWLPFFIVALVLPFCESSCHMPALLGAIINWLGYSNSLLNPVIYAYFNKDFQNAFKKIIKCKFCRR
Experimental: (§1) Further sigma receptor binding assays against [^3 H]DTG and 5HT-1A binding assays were conducted according to the procedure outlined in the previous examples.

[2] = molecular target: sigma receptor; test: Sigma receptor binding, [^3 H]DTG, brain membranes (both sigma-1 and sigma-2 sites); design: species or system guinea pig; conditions: for Ki: running text, Examples 5 and 6, read-out: sigma receptor Ki
Experimental: Sigma receptor binding assays using guinea pig brain membrane homogenates and the radioligand [^3 H]DTG were conducted as described by Weber et al.. […] Briefly, frozen whole guinea-pig brains (Biotrol, Indianapolis, Ind.) were homogenized in 10 volumes (w/v) of ice-cold 320 mM sucrose using a Brinkman polytron. The homogenate was centrifuged at 1,000× g for 20 minutes at 4° C. The supernatant was centrifuged at 20,000× g for 20 minutes at 4° C. The resulting pellet was resuspended in 10 initial volumes of 50 mM Tris/HCl buffer at pH 7.4 and centrifuged at 20,000× g for 20 minutes at 4° C. The resulting pellet was resuspended in 5 initial volumes ice-cold 50 mM Tris/Hcl […], and the final volume was adjusted to yield a protein concentration of 3 mg/ml. Aliquots of 20-ml were stored at -70° C. until used, with no detectable loss of binding.
The protein concentration in the 1-ml final incubation volume was 800 ug/ml, corresponding to 32 mg of brain tissue (original wet weight) and to a tissue concentration within the linear range for specific binding. […] Incubations were terminated after 90 minutes at room temperature by addition of 4 ml of ice-cold 50 mM Tris/HCl (pH 7.4) and rapid filtration of the membrane suspension through Whatman GF/B glass-fiber filters under vacuum, using a 48-well cell harvester (Brandel). The filters were washed 2 times with 4 ml of 50 mM Tris/HCl (pH 7.4). Each filter was suspended in 10 ml Cytoscint (ICI), and radioactivity was measured by liquid scintillation spectrometry at a counting efficiency of approximately 50%. IC50 values were determined by non-linear regression analyis.
as §1
Radioligand Binding. […] Briefly, membranes (P2 microsomal fraction) were diluted 1:3 with 50 mM Tris HCl (pH 7.4) and 0.4 mL was combined with 50 μL [^3 H]DTG (1-2 nM final concentration) and 50 μL of competing drug or buffer. After 90 min at room temperature, incubation was terminated by rapid filtration under vacuum through Whatman GF/B glass fiber filters using a Brandel 48-well cell harvester. Filters were washed three times with 5 mL of cold Tris HCl buffer and each filter was suspended in 5 mL of Cytoscint (ICN Biomedical). Radioactivity was measured by liquid scintillation spectrometry at a counting efficiency of 50%.

[3] = molecular target: T2, sigma-1 binding site (Cavia porcellus, UniProt Q60492); test: biochemical; design: species or system guinea pig
T2 construct: Guinea pig whole membrane preparations (P2 microsomal fraction); from tissue; host or cells: guinea pig membranes (P2 microsomal fraction), as described by Weber et al; brain inferred from the sister test b489
Experimental: [^3 H]DTG was purchased from DuPont/NEN.
The radioactivity on the filters was determined by scintillation spectrometry at an efficiency of about 50% using Cytoscint (ICN) scintillation fluid.

[4] = molecular target: T3, sigma-2 binding site (Cavia porcellus, UniProt H0V073); test: biochemical; design: species or system guinea pig
T3 construct: Guinea pig whole membrane preparations (P2 microsomal fraction); from tissue; host or cells: guinea pig membranes (P2 microsomal fraction), as described by Weber et al; brain inferred from the sister test b489
T3 sequence (H0V073 1-176): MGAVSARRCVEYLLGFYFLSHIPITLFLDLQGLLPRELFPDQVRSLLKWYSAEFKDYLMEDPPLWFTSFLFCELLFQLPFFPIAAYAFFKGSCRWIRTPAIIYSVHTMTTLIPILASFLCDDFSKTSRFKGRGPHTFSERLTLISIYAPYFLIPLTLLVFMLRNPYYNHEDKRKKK
Experimental: For the standard equilibrium assay, the mixtures were incubated for 30 min. at room temperature, then filtered and the radioactivity determined as described above.

[5] = Table 6, read-out: 5HT-1A (nM) MEAN
[6] = Table 10, read-out: SIGMA-1 KI vs. 3H-PENTAZOCINE MEAN
[7] = Table 10, read-out: SIGMA-2 KI vs. 3H-DTG + PENTAZOCINE MEAN
[8] = SIGMA-1 KI vs. 3H-PENTAZOCINE MEAN
[9] = SIGMA-2 KI vs. 3H-DTG + PENTAZOCINE MEAN

T2 sequence (Q60492 whole entry): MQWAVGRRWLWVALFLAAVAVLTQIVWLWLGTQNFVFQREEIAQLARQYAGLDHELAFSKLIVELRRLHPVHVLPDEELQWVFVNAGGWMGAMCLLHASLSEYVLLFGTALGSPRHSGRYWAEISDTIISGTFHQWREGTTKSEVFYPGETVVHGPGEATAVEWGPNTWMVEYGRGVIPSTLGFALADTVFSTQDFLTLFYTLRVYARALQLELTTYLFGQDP

`CC(Cc1ccc(OCc2ccccc2)cc1)NCCCc1ccccc1` (stereo not shown) [Compound 85] gave an IC50 [1, 5] of 1150 nM and an IC50 ([2]; Table 6, [^3 H]DTG) of 28.1 nM.

`c1ccc2cc(N3CCNCC3)ccc2c1` [Compound 60, N-(2-Naphthyl)piperazine] was tested, and the Ki [3, 6] was 220 nM and the Ki [4, 7] was 5600 nM.

With `CC(C)N(CCNC(=O)CN1CCCC1=O)C(C)C` [Pramiracetam, reference compound] the Ki [3, 8] was 10000 nM, the “S1/S2 Ratio” value ([3]; Table 11, sigma-1/sigma-2) was 1.000 and the Ki [4, 9] was 10000 nM.

`C[C@@H]1CN(CCCn2c3ccccc3c3ccccc32)C[C@H](C)N1` [Rimoazole, reference compound] showed a Ki [4, 9] of 265 nM.

`COc1ccc(OC)c(CC(C)NCCCCc2ccccc2)c1` (stereo not shown) [Compound 65] gave an IC50 [1, 5] of 182 nM and an IC50 ([2]; Table 6, [^3 H]DTG) of 72.9 nM.

`CC(C)(C)[C@]1(O)CCN2C[C@H]3c4ccccc4CCc4cccc(c43)[C@@H]2C1` [(+)Butaclamol, reference compound] gave a Ki [4, 9] of 1400 nM.

With `C[C@@H](Cc1ccccc1)N(C)CCc1ccccc1` [Compound 36] the “Ratio 5-HT1A /σ” value ([1]; Table 5) was 239 and the IC50 ([1]; Table 5, read-out: 5-HT1A IC50) was 1630 nM.

Compound `C[C@@H](Cc1ccccc1)N(C)CCCCCc1ccccc1` [Compound 69] has an IC50 [1, 5] of 891 nM and an IC50 ([2]; Table 6, [^3 H]DTG) of 2.25 nM.

Work on `c1ccc(CCCNCCCC2CCCCC2)cc1` [Compound 92, N-(3-Cyclohexylpropyl)-3-phenylpropylamine Hydrochloride] yielded an IC50 [1, 5] of 26.3 nM, an IC50 ([2]; Table 6, [^3 H]DTG) of 2.99 nM and a Ki [2] of 2.4 nM.

Work on `CCCc1ccc(CC(C)NCCCc2ccccc2)cc1` (stereo not shown) [Compound 84] yielded an IC50 [1, 5] of 168 nM and an IC50 ([2]; Table 6, [^3 H]DTG) of 6.43 nM.

In the case of `c1ccc(CCCCCN2CCN(Cc3ccccc3)CC2)cc1` [Compound 129, N-Benzyl-N'-(5-phenylpentyl)-piperazine], the Ki [3, 6] is reported as 0.41 nM, the “S1/S2 Ratio” value ([3]; Table 10, sigma-1/sigma-2) is reported as “.036” and the IC50 ([2]; Table 6, [^3 H]DTG) is reported as 2.29 nM. For the same compound, the Ki [4, 7] was 11.3 nM.

In the case of `C[C@@H](Cc1ccccc1)N(CCCc1ccccc1)Cc1ccccc1` [Compound 134, N-Benzyl-N-(3-phenylpropyl)-1-phenyl-2-propylamine], the Ki ([3]; SIGMA-1 KI vs. 3H-P[…]) is reported as 128 nM, the “S1/S2 Ratio” value ([3]; guinea pig, microsomes) is reported as 0.272 and the IC50 [2] is reported as 199 nM. The Ki ([4]; SIGMA-2 KI vs. 3H-DTG + P[…]) was 471 nM.

`c1ccc(CCCCN2CCC(c3ccccc3)CC2)cc1` [Compound 81] was tested, and the IC50 [1, 5] was 43.9 nM and the IC50 ([2]; Table 6, [^3 H]DTG) was 0.88 nM.

`COc1ccc2c(c1)[C@]13CCCC[C@@H]1[C@H](C2)N(C)CC3` [Dextromethorphan, reference compound] was tested, and the Ki ([3]; SIGMA-1 KI vs. 3H-P[…]) was 522 nM, the “S1/S2 Ratio” value ([3]; guinea pig, microsomes) was 0.035 and the Ki [4, 9] was 15000 nM.

With `CN(C)CCCCCc1ccccc1` [Compound 125, N,N-Dimethyl-5-phenylpentylamine] the sigma-2/sigma-1 selectivity ([3]; Example 8) was 96, the Ki [3, 6] was 10.4 nM and the “S1/S2 Ratio” value ([3]; Table 10, sigma-1/sigma-2) was 0.011. The “IC50 ratio of sigma-1/sigma-2 (sigma-1 selective compounds)” value ([3]; less than about 0.1, see Table 10) was “less than 0.1”, the IC50 ([2]; Table 6, [^3 H]DTG) was 38.8 nM and the Ki [2] was 35 nM. For the same compound, the Ki [4, 7] was 965 nM.

In the case of `c1ccc(CCCCCNCC2CCCCC2)cc1` [Compound 93], the IC50 [1, 5] is reported as 597 nM, the “change in sigma affinity, words” value ([2]; Example 6) is reported as “binds with twice the affinity” and the IC50 ([2]; Table 6, [^3 H]DTG) is reported as 1.4 nM. For the same compound, the Ki [2] was 1.2 nM.

For `CN1CCN(CCCN2c3ccccc3Sc3ccc(C(F)(F)F)cc32)CC1` [Trifluperizine, reference compound], the Ki [3, 8] was 561 nM, the “S1/S2 Ratio” value ([3]; Table 11, sigma-1/sigma-2) was 3.497 and the Ki [4, 9] was 161 nM.

For `CN1CCN(CC/C=C/c2ccccc2)CC1` [Compound 103, N-(4-phenyl-3(E)-butenyl)-N'-methylpiperazine], the “IC50 ratio of sigma-1/sigma-2 (sigma-1 selective compounds)” value [3] was “less than 0.1”, the Ki ([3]; SIGMA-1 KI vs. 3H-P[…]) was 28.7 nM and the “S1/S2 Ratio” value ([3]; guinea pig, microsomes) was 0.011. It also gave an IC50 ([2]; Table 6, [^3 H]DTG) of 75.2 nM and a Ki [4, 7] of 2540 nM.

Compound `O=C1c2ccccc2C(=O)N1CCCCCN1CCN(c2ccccc2)CC1` [Compound 98] has an IC50 [1, 5] of 2.23 nM and an IC50 ([2]; Table 6, [^3 H]DTG) of 6.18 nM.

With `CC(C)(C)[C@@]1(O)CCN2C[C@@H]3c4ccccc4CCc4cccc(c43)[C@H]2C1` [(-)Butaclamol, reference compound] the Ki [4, 9] was 3420 nM.
